From ChEMBL document CHEMBL4390668, “Discovery and Structural Optimization of Acridones as Broad-Spectrum Antimalarials” (J Med Chem, 2019)
pIC50: −log10 of the molar value. Calls of active or inactive are those of the source. The calls are words filed in the database; no cut-off is given here.

Key:
[1] = Mean residence time in ICR mouse plasma at 80 mg/kg, po administered as single dose; type: ADME, organism-based
[2] = Apparent volume of distribution in ICR mouse plasma at 80 mg/kg, po administered as single dose; type: ADME, organism-based; details: in vivo
[3] = Apparent elimination half life in ICR mouse plasma at 80 mg/kg, po administered as single dose; type: ADME, organism-based; details: ICR, plasma, read-out: betat1/2(app) (converted)
Plasmodium yoelii [4] = assay: (§1) Antimalarial activity against blood stage Plasmodium yoelii MR4 MRA-428 infected in CF1 mouse assessed as suppression of parasitemia administered once daily via oral gavage for 4 days starting from 24 hrs post-infection and measured post-last dose by Giemsa-staining based microscopic analysis; type: functional
Plasmodium falciparum [5] = assay: Antimalarial activity against multidrug-resistant Plasmodium falciparum Dd2 infected in human erythrocytes by SYBR green 1-based fluorescence assay; type: functional, organism-based
Plasmodium falciparum [6] = assay: Antimalarial activity against multidrug-resistant Plasmodium falciparum 7G8 infected in human erythrocytes by SYBR green 1-based fluorescence assay; type: functional, organism-based
Plasmodium falciparum [7] = assay: Antimalarial activity against atovaquone-resistant Plasmodium falciparum Tm90-C2B infected in human erythrocytes by SYBR green 1-based fluorescence assay; type: functional, organism-based
Plasmodium berghei [8] = assay: Antimalarial activity against luciferase-expressing Plasmodium berghei ANKA 676m1cl1 sporozoites infected in human HepG2A16 cells measured after 45 hrs by luciferase-luciferin based reporter assay; type: functional, organism-based; details: ANKA 676m1cl1, HepG2A16, 45 h
Plasmodium yoelii [9] = assay: as §1, with “parasitemia at 80 mg/kg, po” for “parasitemia”, “via” for “via oral”, “at weekly intervals for 28 days” for “post-last dose”; type: functional
[10] = Toxicity in CF1 mouse infected with blood stage Plasmodium yoelii MR4 MRA-428 assessed as clinical toxicity at 80 mg/kg, po administered once daily via gavage for 4 days starting from for 4 days starting from 24 hrs post-infection and measured daily during compound dosing; type: organism-based; details: in vivo
[11] = Toxicity in CF1 mouse infected with blood stage Plasmodium yoelii MR4 MRA-428 assessed as behavioral changes at 80 mg/kg, po administered once daily via gavage for 4 days starting from for 4 days starting from 24 hrs post-infection and measured daily during compound dosing; type: organism-based; details: in vivo
Plasmodium berghei [12] = assay: (§2) Antimalarial activity against liver stage luciferase-expressing Plasmodium berghei ANKA 676m1cl1 sporozoites infected in C57BL/6 mouse assessed as suppression of parasitemia at 10 mg/kg, po pretreated for 1 day followed by parasite infection and subsequent compound dosing for 2 days measured at 24 to 48 hrs post-infection by luciferin-based real-time imaging analysis; type: functional
Plasmodium berghei [13] = assay: as §2, with “blood” for “liver”, “up” for “at 24”, “30 days” for “48 hrs”, “YOYO1 staining based flow cytometry” for “luciferin-based real-time imaging analysis”; type: functional
Plasmodium berghei [14] = assay: as §2, with “blood” for “liver”, “4” for “10”, “up” for “at 24”, “30 days” for “48 hrs”, “YOYO1 staining based flow cytometry” for “luciferin-based real-time imaging analysis”; type: functional
hERG (KCNH2) = hERG (KCNH2) (Homo sapiens, UniProt Q12809); assay: Inhibition of human ERG expressed in CHOK1 cells at 10 uM by automated patch clamp method relative to control; type: cell-based; details: CHO-K1 cells that express hERG
hERG (KCNH2), sequence (Q12809 whole entry): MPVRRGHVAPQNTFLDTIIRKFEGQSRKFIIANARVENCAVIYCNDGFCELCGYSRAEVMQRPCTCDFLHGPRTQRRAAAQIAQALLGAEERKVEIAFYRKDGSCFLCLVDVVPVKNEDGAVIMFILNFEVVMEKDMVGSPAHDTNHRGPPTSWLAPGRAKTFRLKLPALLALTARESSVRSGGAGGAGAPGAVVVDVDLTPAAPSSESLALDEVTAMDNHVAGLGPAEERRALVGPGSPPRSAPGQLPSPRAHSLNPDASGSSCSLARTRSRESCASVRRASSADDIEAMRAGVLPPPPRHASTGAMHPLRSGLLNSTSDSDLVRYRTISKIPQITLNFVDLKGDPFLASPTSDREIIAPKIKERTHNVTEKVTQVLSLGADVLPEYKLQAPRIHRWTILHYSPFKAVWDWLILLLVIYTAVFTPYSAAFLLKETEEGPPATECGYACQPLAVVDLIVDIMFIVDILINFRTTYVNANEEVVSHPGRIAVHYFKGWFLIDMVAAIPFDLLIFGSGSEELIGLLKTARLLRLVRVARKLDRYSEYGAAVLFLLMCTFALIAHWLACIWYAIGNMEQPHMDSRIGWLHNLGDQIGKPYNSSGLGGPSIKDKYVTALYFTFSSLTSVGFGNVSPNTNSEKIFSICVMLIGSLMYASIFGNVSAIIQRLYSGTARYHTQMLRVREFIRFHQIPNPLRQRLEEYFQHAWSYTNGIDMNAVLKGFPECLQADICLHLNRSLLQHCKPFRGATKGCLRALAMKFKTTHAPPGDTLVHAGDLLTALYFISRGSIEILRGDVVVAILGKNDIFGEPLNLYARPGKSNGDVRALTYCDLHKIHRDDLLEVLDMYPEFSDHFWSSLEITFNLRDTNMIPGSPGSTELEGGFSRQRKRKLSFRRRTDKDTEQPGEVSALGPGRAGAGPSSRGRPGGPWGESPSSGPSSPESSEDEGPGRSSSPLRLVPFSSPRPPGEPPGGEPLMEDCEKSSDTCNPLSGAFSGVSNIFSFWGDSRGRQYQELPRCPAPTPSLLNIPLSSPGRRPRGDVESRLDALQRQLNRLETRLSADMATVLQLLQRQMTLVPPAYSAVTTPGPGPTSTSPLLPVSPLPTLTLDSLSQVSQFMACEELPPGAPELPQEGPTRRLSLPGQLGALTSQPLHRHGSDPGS

[15] = Half life in human liver microsomes at 1 uM by LC-MS analysis; type: ADME, Microsome
[16] = Mutagenicity in Salmonella typhimurium TA100 assessed as increase in revertant colonies up to 10 uM in presence of S9 fraction by Ames test; type: toxicity, subcellular; details: salmonella enterica subsp. enterica serovar typhimurium
[17] = Mutagenicity in Salmonella typhimurium TA100 assessed as increase in revertant colonies up to 10 uM in absence of S9 fraction by Ames test; type: toxicity; details: salmonella enterica subsp. enterica serovar typhimurium
[18] = Mutagenicity in Salmonella typhimurium TA98 assessed as increase in revertant colonies up to 10 uM in presence of S9 fraction by Ames test; type: toxicity, subcellular; details: salmonella enterica subsp. enterica serovar typhimurium
[19] = Mutagenicity in Salmonella typhimurium TA98 assessed as increase in revertant colonies up to 10 uM in absence of S9 fraction by Ames test; type: toxicity; details: salmonella enterica subsp. enterica serovar typhimurium
[20] = Half life in mouse liver microsomes at 1 uM by LC-MS analysis; type: ADME, Microsome
[21] = Cmax in ICR mouse plasma at 80 mg/kg, po administered as single dose; type: ADME, organism-based; set-up: dose 80 mg/kg, route oral; details: ICR, plasma, read-out: Cmax
[22] = Tmax in ICR mouse plasma at 80 mg/kg, po administered as single dose; type: ADME, organism-based; details: ICR, plasma, read-out: Tmax
[23] = AUC (0 to last) in ICR mouse plasma at 80 mg/kg, po administered as single dose; type: ADME, organism-based; set-up: dose 80 mg/kg, route oral, time 0 - last
[24] = AUC (0 to infinity) in ICR mouse plasma at 80 mg/kg, po administered as single dose; type: ADME, organism-based; set-up: dose 80 mg/kg, route oral, time infinity; details: ICR, plasma
[25] = Apparent clearance in ICR mouse plasma at 80 mg/kg, po administered as single dose; type: ADME, organism-based; details: read-out: CL(app) (converted)
[26] = Cmax in ICR mouse liver at 80 mg/kg, po administered as single dose; type: ADME, organism-based; set-up: dose 80 mg/kg, route oral
[27] = Tmax in ICR mouse liver at 80 mg/kg, po administered as single dose; type: ADME, organism-based
[28] = AUC (0 to last) in ICR mouse liver at 80 mg/kg, po administered as single dose; type: ADME, organism-based; set-up: dose 80 mg/kg, route oral, time 0 - last
[29] = AUC (0 to infinity) in ICR mouse liver at 80 mg/kg, po administered as single dose; type: ADME, organism-based; set-up: dose 80 mg/kg, route oral, time infinity
[30] = Apparent elimination half life in ICR mouse liver at 80 mg/kg, po administered as single dose; type: ADME, organism-based; details: read-out: betat1/2(app) (converted)
[31] = Apparent volume of distribution in ICR mouse liver at 80 mg/kg, po administered as single dose; type: ADME, organism-based; details: in vivo
[32] = Mean residence time in ICR mouse liver at 80 mg/kg, po administered as single dose; type: ADME, organism-based
Plasmodium falciparum [33] = assay: Antimalarial activity against drug-resistant Plasmodium falciparum Dd2 harboring V259L mutant infected in human erythrocytes after 72 hrs by SYBR green 1-based fluorescence assay; type: functional, organism-based; details: Dd2, 72 h
Plasmodium falciparum [34] = assay: Antimalarial activity against drug-resistant Plasmodium falciparum Dd2 harboring M133I/A138T double mutant infected in human erythrocytes after 72 hrs by SYBR green 1-based fluorescence assay; type: functional, organism-based; details: Dd2, 72 h
Plasmodium falciparum [35] = assay: Antimalarial activity against drug-resistant Plasmodium falciparum 3D7 harboring A82T/V259L double mutant infected in human erythrocytes after 72 hrs by SYBR green 1-based fluorescence assay; type: functional, organism-based; details: 3D7, 72 h
Plasmodium falciparum [36] = assay: Inhibition of Plasmodium falciparum cytochrome b-c1
Plasmodium falciparum [37] = assay: Antimalarial activity against chloroquine-sensitive Plasmodium falciparum D6 infected in human erythrocytes by SYBR green 1-based fluorescence assay; type: functional, organism-based
HepG2 = assay: Cytotoxicity against human HepG2 cells measured after 24 to 36 hrs by resazurin dye based fluorescence assay; type: cell-based
[38] = Selectivity index, ratio of IC50 for human HepG2 cells to IC50 for chloroquine-sensitive Plasmodium falciparum D6 infected in human erythrocytes; type: toxicity, cell-based; details: read-out: Ratio IC50
Plasmodium berghei [39] = assay: as §2, with “40 to 160” for “10”; type: functional
Plasmodium falciparum [40] = assay: Antimalarial activity against Plasmodium falciparum 3D7 infected in human erythrocytes after 72 hrs by SYBR green 1-based fluorescence assay; type: functional, organism-based; details: 3D7, 72 h

Row | SMILES | MRT [1] [h] | Vz [2] [L/kg] | half-life [3] [h] | ED50 (Plasmodium yoelii [4]) [mg/kg.day] | ED90 (Plasmodium yoelii [4]) [mg/kg.day] | pIC50 (Plasmodium falciparum [5]) | pIC50 (Plasmodium falciparum [6]) | pIC50 (Plasmodium falciparum [7]) | pIC50 (Plasmodium berghei [8]) | half-life at 1 µM [15] [h] | half-life at 1 µM [20] [h] | Cmax [21] [ng/mL] | Tmax [22] [h] | AUC(0-t) [23] [µg·h/mL] | AUC(0-inf) [24] [µg·h/mL] | CL/F [25] [mL/min/kg] | Cmax [26] [ng/mL] | Tmax [27] [h] | AUC(0-t) [28] [µg·h/mL] | AUC(0-inf) [29] [µg·h/mL] | other results
1 | CCCCN(CCCC)CCOc1ccc2c(=O)c3c(Cl)c(Cl)ccc3[nH]c2c1 | 6.96 | 223.865 | 6 | 1.03 | 1.64 | 7.85 to 10.39 | 10.37 | 6.64 | 9.30 | 0.2 | 0.35 | 226 | 2.75 | 3.05 | 3.24 | 431 | 21300 | 2.75 | 168 | 169 | Activity (Plasmodium yoelii [9]): 100%; Activity [10]: Non-Toxic; Activity [11]: Non-Toxic; Activity (Plasmodium berghei [12]): 100%; Activity (Plasmodium berghei [13]): 100%; Activity (Plasmodium berghei [14]): 100%; inhibition at 10 µM (hERG (KCNH2)): 57%; Activity [16]: Non-Toxic; Activity [17]: Non-Toxic; Activity [18]: Non-Toxic; Activity [19]: Non-Toxic; half-life [30]: 4.63 h; Vz [31]: 3.605 L/kg; MRT [32]: 10.1 h; pIC50 (Plasmodium falciparum [33]): 6.85; pIC50 (Plasmodium falciparum [34]): 7.42; pIC50 (Plasmodium falciparum [35]): 7.24; inhibition (Plasmodium falciparum [36]): inactive
2 | CCN(CC)CCOc1ccc2c(=O)c3ccc(Cl)cc3[nH]c2c1 | 3.41 | 37.689 | 1.9 | 48 | 72 | 6.93 to 7.39 | 7.42 | 6.23 | 6.95 | > 1 | > 1 | 1360 | 2 | 5.31 | 5.81 | 230 | 193000 | 1 | 1460 | 1460 | pIC50 (Plasmodium falciparum [37]): 7.49; pIC50 (HepG2): 4.44; selectivity ratio [38]: 1140; Activity (Plasmodium berghei [39]): 100%; half-life [30]: 6.7 h; MRT [32]: 5.59 h; pIC50 (Plasmodium falciparum [33]): 5.67; pIC50 (Plasmodium falciparum [34]): 5.97; pIC50 (Plasmodium falciparum [40]): 7.08; pIC50 (Plasmodium falciparum [35]): 5.78; inhibition (Plasmodium falciparum [36]): inactive
3 | CCCN(CCC)CCCOc1ccc2c(=O)c3c(F)cc(F)cc3[nH]c2c1 | 11.8 | 175.302 | 7.78 | 0.6 | 2.48 | 9.31 | 8.68 | 6.36 | 8.47 | > 1 | > 1 | 526 | 7.78 | 3.43 | 5.08 | 265 | 19700 | 4 | 236 | 237 | pIC50 (Plasmodium falciparum [37]): 9.46; pIC50 (HepG2): 4.21; selectivity ratio [38]: 176000; Activity (Plasmodium berghei [12]): 100%; Activity (Plasmodium berghei [13]): 100%; inhibition at 10 µM (hERG (KCNH2)): 102%; Activity [16]: Non-Toxic; Activity [17]: Non-Toxic; Activity [18]: Non-Toxic; Activity [19]: Non-Toxic; half-life [30]: 6.59 h; MRT [32]: 13.3 h
